According to patent EP4631938A1, “NITROGEN-CONTAINING HETEROCYCLE WITH SEROTONIN RECEPTOR-BINDING ACTIVITY AND CARBOCYCLIC DERIVATIVE” (Shionogi & Co., Ltd, priority 2022, dated 2024):
Read-outs that look alike come from different tables or passages of the source.

How the values were obtained:
[1] = biological target: T1, human recombinant 5-HT2C receptor (Homo sapiens, UniProt P28335); test: Test Example 2: 5-HT2C receptor binding inhibition test ([3H]-Mesulergine; non-specific ligand Serotonin HCl); settings: human serotonin 5-HT2C receptor binding activity
T1 construct: expressed in transfected cells; host or cells: Jump-In HEK cells (membrane preparation)
T1 sequence (P28335 33-458): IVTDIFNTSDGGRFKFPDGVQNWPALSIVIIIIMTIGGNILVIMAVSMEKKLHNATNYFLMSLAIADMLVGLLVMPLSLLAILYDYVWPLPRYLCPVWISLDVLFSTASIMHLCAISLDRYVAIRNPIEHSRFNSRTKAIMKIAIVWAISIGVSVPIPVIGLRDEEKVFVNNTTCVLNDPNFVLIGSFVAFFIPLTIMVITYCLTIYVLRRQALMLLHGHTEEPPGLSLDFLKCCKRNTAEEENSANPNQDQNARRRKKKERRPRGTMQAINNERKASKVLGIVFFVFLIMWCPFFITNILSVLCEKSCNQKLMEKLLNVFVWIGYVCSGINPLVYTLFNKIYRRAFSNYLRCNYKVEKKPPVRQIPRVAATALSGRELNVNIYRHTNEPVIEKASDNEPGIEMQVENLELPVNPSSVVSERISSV
Method: The Kd value is calculated when the lot of the cell membrane is changed. 1 mmol/L non-specific binding calculating compound dissolved in DMSO or DMSO is previously dispensed to the microplate by 0.5 µL, and the cell membrane is diluted with an Assay buffer. The radioactive ligand solution is diluted step by step, and counts are checked with a liquid scintillator. The Assay buffer containing diluted cell membranes is dispensed by 50 µL/well into the microplate. The radioactive ligand solution is then dispensed by 50 µL/well into the microplate and the plate is sealed. The microplate is allowed to stand at 37°C for 2 hours. During this time, 50 mmol/L Tris-HCl (pH 7.4) is dispensed by 50 µL/well into the GF/B UniFilter plate and allowed to stand at 4°C for 1 hour or longer. Thereafter, filtration is performed with a Cell Harvester (PerkinElmer). The radioactive ligand solution is dispensed by 10 µL/well into empty wells of the GF/B UniFilter plate. After drying the GF/B UniFilter plate at room temperature, MicroScinti20 is dispensed by 50 µL/well into the GF/B UniFilter plate, and the plate is sealed. GF/B UniFilter plate is allowed to stand at room temperature overnight. The radioactivity of [^3H]-Mesulergine bound to the 5-HT2C receptor is measured using Microbeta2 (PerkinElmer) at a measurement time of 1 min/well. The Saturation curve is drawn from the measured value, and the Kd value is calculated from the slope of the Scatchard Plot.
A compound solution dissolved in DMSO is dispensed to a microplate by 0.5 µL, and a cell membrane and a hot ligand are each diluted with an Assay buffer. The Assay buffer containing diluted cell membrane is then dispensed by 50 µL/well into the microplate. The radioactive ligand solution is then dispensed by 50 µL/well into the microplate and the plate is sealed. The microplate is then allowed to stand at 37°C for 2 hours. During this time, 50 mmol/L Tris-HCl (pH 7.4) is dispensed by 50 µL/well into the GF/B UniFilter plate and allowed to stand at 4°C for 1 hour or longer. Thereafter, filtration is performed with a Cell Harvester (PerkinElmer). After drying the GF/B UniFilter plate at room temperature, MicroScinti20 is dispensed by 50 µL/well into the GF/B UniFilter plate, and the plate is sealed. GF/B UniFilter plate is allowed to stand at room temperature overnight. The radioactivity of [^3H]-Mesulergine bound to the 5-HT2C receptor is measured using Microbeta2 (PerkinElmer) at a measurement time of 1 min/well. Non-specific binding is calculated from the radioactivity of [^3H]-Mesulergine in the presence of 500 µmol/L Serotonin HCl of unlabeled ligand, and total binding is calculated from the radioactivity of [^3H]-Mesulergine in the absence of the compound of the present invention (Vehicle). Finally, the Ki value is calculated from the dose-response curve.
(§1) (The binding activity of the compound according to the present invention is calculated from the following binding inhibition rate (%).) Inhibition rate (%) = [1−(c−a)/(b−a)] × 100 [formula] • a; average cpm of non-specific binding • b; average cpm of total binding • c; cpm in the presence of the test compound
(§2) The compounds of the present invention were tested essentially as described above.

[2] = biological target: T2, human recombinant 5-HT2A receptor (Homo sapiens, UniProt P28223); test: Test Example 1-2: 5-HT2A receptor binding inhibition test ([3H]-Ketanserin; non-specific ligand Ketanserin)
T2 construct: expressed in transfected cells; host or cells: Jump-In HEK cells (membrane preparation)
T2 sequence (P28223 whole entry): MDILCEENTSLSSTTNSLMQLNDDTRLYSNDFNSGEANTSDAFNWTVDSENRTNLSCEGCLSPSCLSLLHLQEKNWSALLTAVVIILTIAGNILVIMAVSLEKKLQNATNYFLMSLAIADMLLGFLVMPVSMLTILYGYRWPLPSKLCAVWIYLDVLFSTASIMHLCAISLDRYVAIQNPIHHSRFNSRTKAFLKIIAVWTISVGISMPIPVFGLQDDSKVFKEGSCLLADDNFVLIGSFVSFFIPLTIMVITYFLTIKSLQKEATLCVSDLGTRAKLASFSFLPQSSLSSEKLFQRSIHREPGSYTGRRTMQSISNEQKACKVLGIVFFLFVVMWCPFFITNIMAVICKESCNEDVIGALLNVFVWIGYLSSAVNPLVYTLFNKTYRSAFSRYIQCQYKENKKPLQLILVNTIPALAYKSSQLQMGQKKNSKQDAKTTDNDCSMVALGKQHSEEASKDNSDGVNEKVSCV
Method: The Kd value is calculated when the lot of the cell membrane is changed. 1 mmol/L non-specific binding calculating compound dissolved in DMSO or DMSO is previously dispensed to the microplate by 0.5 µL, and the cell membrane is diluted with an Assay buffer. The radioactive ligand solution is diluted step by step, and counts are checked with a liquid scintillator. The Assay buffer containing diluted cell membranes is dispensed by 50 µL/well into the microplate. The radioactive ligand solution is then dispensed by 50 µL/well into the microplate and the plate is sealed. The microplate is allowed to stand for 1.5 hours at room temperature (25°C). During this time, 50 mmol/L Tris-HCl (pH 7.4) is dispensed by 50 µL/well into the UniFilter plate and allowed to stand at 4°C for 1 hour or longer. Thereafter, filtration is performed with a Cell Harvester (PerkinElmer). The radioactive ligand solution is dispensed by 10 µL/well into empty wells of the UniFilter plate. After drying the UniFilter plate at room temperature, MicroScinti20 is dispensed by 50 µL/well into the UniFilter plate, and the plate is sealed. UniFilter plate is allowed to stand at room temperature overnight. The radioactivity of [^3H]-Ketanserin bound to the 5-HT2A receptor is measured using Microbeta2 (PerkinElmer) at a measurement time of 1 min/well. The Saturation curve is drawn from the measured value, and the Kd value is calculated from the slope of the Scatchard Plot.
A compound solution dissolved in DMSO is dispensed to a microplate by 0.5 µL, and a cell membrane and a hot ligand are each diluted with an Assay buffer. The Assay buffer containing diluted cell membrane is then dispensed by 50 µL/well into the microplate. The radioactive ligand solution is then dispensed by 50 µL/well into the microplate and the plate is sealed. Thereafter, the microplate is allowed to stand at room temperature (25°C) for 1.5 hours. During this time, 50 mmol/L Tris-HCl (pH 7.4) is dispensed by 50 µL/well into the UniFilter plate and allowed to stand at 4°C for 1 hour or longer. Thereafter, filtration is performed with a Cell Harvester (PerkinElmer). After drying the UniFilter plate at room temperature, MicroScinti20 is dispensed by 50 µL/well into the UniFilter plate, and the plate is sealed. UniFilter plate is allowed to stand at room temperature overnight. The radioactivity of [^3H]-Ketanserin bound to the 5-HT2A receptor is measured using Microbeta2 (PerkinElmer) at a measurement time of 1 min/well. Non-specific binding is calculated from the radioactivity of [^3H]-Ketanserin in the presence of 500 µmol/L Ketanserin of unlabeled ligand, and total binding is calculated from the radioactivity of [^3H]-Ketanserin in the absence of the compound of the present invention (Vehicle). Finally, the Ki value is calculated from the dose-response curve.
as §1, §2

[3] = [3H]-Ketanserin; non-specific binding with 500 µmol/L Ketanserin; room temperature (25°C), 1.5 hours; read-out: h 5-HT2A Ki
[4] = read-out: h 5-HT2A Ki; [3H]-Ketanserin; non-specific binding with 500 µmol/L Ketanserin; room temperature (25°C), 1.5 hours

SMILES	Ki [1]	Ki [2, 3]	Ki [2, 4]
CC(CO)Oc1cnc(Nc2ncc(C(F)(F)F)cc2F)cc1-c1c(Br)cnn1C (single isomer, unassigned) [Compound I-224]			0.521 nM
CC(CO)Oc1cnc(Nc2ncc(C(F)(F)F)cc2F)cc1-c1c(Br)cnn1C (single isomer, unassigned) [Compound I-225]			0.396 nM
Cn1ncc(Br)c1-c1cc(Nc2ncc(Cl)cn2)ccc1OCCO [Compound I-119]		0.315 nM	
Cc1nc(C)c(-c2cc(Nc3ncc(C(F)(F)F)cc3F)c(F)cc2OCCO)c(C)n1 [Compound I-146]		0.678 nM	
Cc1cnn(C)c1-c1cc(Nc2ncc(Cl)cc2F)c(F)cc1OCCO [Compound I-160]	3.01 nM	0.21 nM	
Cn1ncc(Cl)c1-c1cc(Nc2ncc(C(F)(F)F)cn2)c(F)cc1OCCO [Compound I-161]	1.13 nM	0.361 nM	
Cn1ncc(Cl)c1-c1cc(Nc2ncc(Cl)cn2)c(F)cc1OCCO [Compound I-162]	4.25 nM	0.395 nM	
Cn1ncc(Cl)c1-c1cc(Nc2ccc(Cl)cn2)c(F)cc1OCCO [Compound I-163]	1.26 nM	0.216 nM	
Cn1ncc(Cl)c1-c1cc(Nc2ncc(F)cc2F)c(F)cc1OCCO [Compound I-164]	2.09 nM	0.325 nM	
Cn1ncc(Br)c1-c1cc(Nc2ncc(F)cn2)c(F)cc1OCCO [Compound I-165]	9.78 nM	0.389 nM	
Cc1nc(C)c(-c2cc(Nc3ncc(Cl)cc3F)c(F)cc2OCCO)c(C)n1 [Compound I-166]	5.57 nM	0.67 nM	
Cc1nc(C)c(-c2cc(Nc3ccc(Cl)cn3)c(F)cc2OCCO)c(C)n1 [Compound I-167]	5.37 nM	0.511 nM	
Cn1ncc(Br)c1-c1cc(Nc2ncc(OC(F)(F)F)cc2F)c(F)cc1OCCO [Compound I-168]	0.162 nM	0.248 nM	
COc1cnc(Nc2cc(-c3c(Cl)cnn3C)c(OCCO)cc2F)nc1 [Compound I-169]	9.97 nM	0.738 nM	
Cn1ncc(F)c1-c1cc(Nc2ccc(C(F)(F)F)cn2)c(F)cc1OCCO [Compound I-170]	5.45 nM	0.212 nM	
Cc1nc(C)c(-c2cc(Nc3ncc(OCC(F)(F)C(F)(F)F)cc3Cl)ncc2OCCO)c(C)n1 [Compound I-250]	2.43 nM		

Further lines, with some results ahead:

Ki [1]	Ki [2, 3]	SMILES	Ki [2, 4]
6.01 nM	8.31 nM	COCc1nc(C)c(-c2cc(Nc3ncc(C4CC4(F)F)cc3Cl)ncc2OCCO)c(C)n1 (racemic) [Compound I-194]	
9.63 nM	5.3 nM	Cc1nc(C2CCCO2)nc(C)c1-c1cc(Nc2ncc(C(F)(F)F)cc2F)ncc1OCCO (racemic) [Compound I-198]	
8.87 nM	1.66 nM	Cc1nc(OCC2CCCO2)nc(C)c1-c1cc(Nc2ncc(C(F)(F)F)cc2Cl)ncc1OCCO (racemic) [Compound I-214]	
5.53 nM	1.81 nM	Cc1nc(C2CCO2)nc(C)c1-c1cc(Nc2ncc(C(F)(F)F)cc2Cl)ncc1OCCO (racemic) [Compound I-216]	
3.43 nM	2.44 nM	Cc1nc(COC2CCCOC2)nc(C)c1-c1cc(Nc2ncc(C(F)(F)F)cc2Cl)ncc1OCCO (racemic) [Compound I-382]	
5.81 nM	0.16 nM	Cn1ncc(F)c1-c1cc(Nc2ncc(Cl)cc2F)c(F)cc1OCCO [Compound I-171]	
2.49 nM	0.812 nM	Cc1cc(Cl)cnc1Nc1cc(-c2c(C)cnn2C)c(OCCO)cc1F [Compound I-172]	
5.11 nM	1.42 nM	Cc1nc(C)c(-c2cc(Nc3ncc(Cl)cc3C)c(F)cc2OCCO)c(C)n1 [Compound I-173]	
2.15 nM	0.888 nM	Cc1nc(C)c(-c2cc(Nc3ncc(OC(F)(F)F)cc3F)c(F)cc2OCCO)c(C)n1 [Compound I-174]	
3.19 nM	1.92 nM	Cc1nc(C)c(-c2cc(Nc3ncc(C(F)(F)F)cc3C)c(F)cc2OCCO)c(C)n1 [Compound I-175]	
6.81 nM	0.453 nM	Cc1cc(OC(F)F)cnc1Nc1cc(-c2c(C)cnn2C)c(OCCO)cn1 [Compound I-176]	
0.63 nM	0.331 nM	Cc1cc(OC(F)F)cnc1Nc1cc(-c2c(Br)cnn2C)c(OCCO)cn1 [Compound I-177]	
3.34 nM	0.386 nM	Cc1cnn(C)c1-c1cc(Nc2ncc(OC(F)F)cc2F)ncc1OCCO [Compound I-178]	
0.296 nM	0.278 nM	Cc1cc(OC(F)(F)F)cnc1Nc1cc(-c2c(Br)cnn2C)c(OCCO)cn1 [Compound I-179]	
1.86 nM	0.346 nM	Cc1cc(OC(F)(F)F)cnc1Nc1cc(-c2c(C)cnn2C)c(OCCO)cn1 [Compound I-180]	
3.62 nM	0.984 nM	Cc1nc(C)c(-c2cc(Nc3ncc(OC(F)(F)F)cc3C)ncc2OCCO)c(C)n1 [Compound I-181]	
4.75 nM	0.475 nM	CC(C)Oc1ccc(Nc2cc(-c3c(Br)cnn3C)c(OCCO)cn2)nc1 [Compound I-182]	
1.22 nM	0.271 nM	Cc1cnn(C)c1-c1cc(Nc2ncc(OC(F)(F)F)cc2Cl)ncc1OCCO [Compound I-183]	
2.98 nM	3.84 nM	COCc1nc(C)c(-c2cc(Nc3ncc(C(F)(F)F)cc3F)c(F)cc2OCCO)c(C)n1 [Compound I-184]	
